Legend:
Assay in all cases: relative viability (nuclei count vs DMSO), 5 days (fraction); higher = more cells survive
NCI-H2009 = test system: NCI-H2009
In short: (§1)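 Lung cancer cell lines were pin-tool dosed in 1536-well plates on the day after seeding, with either a lone drug or a fixed anchor-drug dose plus five library-drug doses (not always all listed) in √10 steps. Nuclei were counted on 4× images after 5 days. Relative viability is the ratio of treated-well to vehicle-well nuclei counts, with each value a median of duplicate plates.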

LXF-289 = test system: LXF-289
In short: as §1

NCI-H2126 = test system: NCI-H2126
In short: as §1

COR-L 105 = test system: COR-L 105
In short: as §1

PC-3 [JPC-3] = test system: PC-3 [JPC-3]
In short: as §1

HARA = test system: HARA
In short: as §1

COR-L23 = test system: COR-L23
In short: as §1

HOP-62 = test system: HOP-62
In short: as §1

HCC-366 = test system: HCC-366
In short: as §1

HCC-827 = test system: HCC-827
In short: as §1

SK-MES-1 = test system: SK-MES-1
In short: as §1

PC-14 = test system: PC-14
In short: as §1

NCI-H2087 = test system: NCI-H2087
In short: as §1

HCC-15 = test system: HCC-15
In short: as §1

LU99A = test system: LU99A
In short: as §1

CAL-12T = test system: CAL-12T
In short: as §1

LC-2-ad = test system: LC-2-ad
In short: as §1

NCI-H522 = test system: NCI-H522
In short: as §1

NCI-H1993 = test system: NCI-H1993
In short: as §1

NCI-H2170 = test system: NCI-H2170
In short: as §1

LCLC-97TM1 = test system: LCLC-97TM1
In short: as §1

COCC1(CO)C(=O)C2CCN1CC2 (stereo not drawn) [PRIMA-1MET] + Cc1nc(Nc2ncc(C(=O)Nc3c(C)cccc3Cl)s2)cc(N2CCN(CCO)CC2)n1 [Dasatinib] (partner 0.075 µM)
relative viability (NCI-H2009; first compound 0.2 µM): 0.298
relative viability (NCI-H2009; first compound 0.6325 µM): 0.314
relative viability (NCI-H2009; first compound 2 µM): 0.294
relative viability (NCI-H2009; first compound 6.325 µM): 0.142
relative viability (NCI-H2009; first compound 20 µM): 0.0053
relative viability (LXF-289; first compound 0.2 µM): 0.277
relative viability (LXF-289; first compound 0.6325 µM): 0.179
relative viability (LXF-289; first compound 2 µM): 0.199
relative viability (LXF-289; first compound 6.325 µM): 0.232
relative viability (LXF-289; first compound 20 µM): 0.173
relative viability (NCI-H2126; first compound 0.2 µM): 0.722
relative viability (NCI-H2126; first compound 0.6325 µM): 0.58
relative viability (NCI-H2126; first compound 2 µM): 0.643
relative viability (NCI-H2126; first compound 6.325 µM): 0.646
relative viability (NCI-H2126; first compound 20 µM): 0.605
relative viability (COR-L 105; first compound 0.2 µM): 0.346
relative viability (COR-L 105; first compound 0.6325 µM): 0.404
relative viability (COR-L 105; first compound 2 µM): 0.292
relative viability (COR-L 105; first compound 6.325 µM): 0.161
relative viability (COR-L 105; first compound 20 µM): 0.091
relative viability (PC-3 [JPC-3]; first compound 0.2 µM): 0.977
relative viability (PC-3 [JPC-3]; first compound 0.6325 µM): 0.977
relative viability (PC-3 [JPC-3]; first compound 2 µM): 0.96
relative viability (PC-3 [JPC-3]; first compound 6.325 µM): 0.933
relative viability (PC-3 [JPC-3]; first compound 20 µM): 0.971
relative viability (HARA; first compound 0.2 µM): 0.303
relative viability (HARA; first compound 0.6325 µM): 0.257
relative viability (HARA; first compound 6.325 µM): 0.294
relative viability (HARA; first compound 20 µM): 0.252
relative viability (COR-L23; first compound 0.2 µM): 0.508
relative viability (COR-L23; first compound 0.6325 µM): 0.478
relative viability (COR-L23; first compound 2 µM): 0.595
relative viability (COR-L23; first compound 6.325 µM): 0.432
relative viability (COR-L23; first compound 20 µM): 0.0161
relative viability (HOP-62; first compound 0.2 µM): 0.637
relative viability (HOP-62; first compound 0.6325 µM): 0.7
relative viability (HOP-62; first compound 2 µM): 0.628
relative viability (HOP-62; first compound 6.325 µM): 0.658
relative viability (HOP-62; first compound 20 µM): 0.582
relative viability (HCC-366; first compound 0.2 µM): 0.854
relative viability (HCC-366; first compound 0.6325 µM): 0.527
relative viability (HCC-366; first compound 2 µM): 0.619
relative viability (HCC-366; first compound 6.325 µM): 0.67
relative viability (HCC-366; first compound 20 µM): 0.318
relative viability (HCC-827; first compound 0.2 µM): 0.417
relative viability (HCC-827; first compound 0.6325 µM): 0.337
relative viability (HCC-827; first compound 2 µM): 0.427
relative viability (HCC-827; first compound 6.325 µM): 0.332
relative viability (HCC-827; first compound 20 µM): 0.315
relative viability (SK-MES-1; first compound 0.2 µM): 0.303
relative viability (SK-MES-1; first compound 0.6325 µM): 0.475
relative viability (SK-MES-1; first compound 2 µM): 0.447
relative viability (SK-MES-1; first compound 6.325 µM): 0.286
relative viability (SK-MES-1; first compound 20 µM): 0.242
relative viability (PC-14; first compound 0.2 µM): 0.249
relative viability (PC-14; first compound 0.6325 µM): 0.249
relative viability (PC-14; first compound 2 µM): 0.276
relative viability (PC-14; first compound 6.325 µM): 0.249
relative viability (PC-14; first compound 20 µM): 0.0176
relative viability (NCI-H2087; first compound 0.2 µM): 0.471
relative viability (NCI-H2087; first compound 0.6325 µM): 0.727
relative viability (NCI-H2087; first compound 2 µM): 0.626
relative viability (NCI-H2087; first compound 6.325 µM): 0.876
relative viability (NCI-H2087; first compound 20 µM): 0.289
relative viability (HCC-15; first compound 0.2 µM): 0.732
relative viability (HCC-15; first compound 0.6325 µM): 0.628
relative viability (HCC-15; first compound 2 µM): 0.639
relative viability (HCC-15; first compound 6.325 µM): 0.625
relative viability (HCC-15; first compound 20 µM): 0.181
relative viability (LU99A; first compound 0.2 µM): 0.612
relative viability (LU99A; first compound 0.6325 µM): 0.513
relative viability (LU99A; first compound 2 µM): 0.586
relative viability (LU99A; first compound 6.325 µM): 0.671
relative viability (LU99A; first compound 20 µM): 0.0333
relative viability (CAL-12T; first compound 0.2 µM): 0.34
relative viability (CAL-12T; first compound 0.6325 µM): 0.341
relative viability (CAL-12T; first compound 2 µM): 0.456
relative viability (CAL-12T; first compound 6.325 µM): 0.364
relative viability (CAL-12T; first compound 20 µM): 0.0829
relative viability (LC-2-ad; first compound 0.2 µM): 0.346
relative viability (LC-2-ad; first compound 2 µM): 0.472
relative viability (LC-2-ad; first compound 6.325 µM): 0.584
relative viability (LC-2-ad; first compound 20 µM): 0.508
relative viability (NCI-H522; first compound 0.2 µM): 0.797
relative viability (NCI-H522; first compound 0.6325 µM): 0.738
relative viability (NCI-H522; first compound 2 µM): 0.852
relative viability (NCI-H522; first compound 6.325 µM): 0.68
relative viability (NCI-H522; first compound 20 µM): 0.0665
relative viability (NCI-H1993; first compound 0.2 µM): 0.596
relative viability (NCI-H1993; first compound 0.6325 µM): 0.587
relative viability (NCI-H1993; first compound 2 µM): 0.574
relative viability (NCI-H1993; first compound 6.325 µM): 0.554
relative viability (NCI-H1993; first compound 20 µM): 0.582
relative viability (NCI-H2170; first compound 0.2 µM): 0.554
relative viability (NCI-H2170; first compound 0.6325 µM): 0.46
relative viability (NCI-H2170; first compound 2 µM): 0.497
relative viability (NCI-H2170; first compound 6.325 µM): 0.604
relative viability (NCI-H2170; first compound 20 µM): 0.586
relative viability (LCLC-97TM1; first compound 0.2 µM): 0.461
relative viability (LCLC-97TM1; first compound 0.6325 µM): 1.01
relative viability (LCLC-97TM1; first compound 2 µM): 0.815
relative viability (LCLC-97TM1; first compound 6.325 µM): 0.855
relative viability (LCLC-97TM1; first compound 20 µM): 0.833
